Reference: patent US20200121704A1, “METHODS FOR TREATING HYPERTENSION AND ARTERIAL STIFFNESS” (THE REGENTS OF THE UNIVERSITY OF COLORADO, A BODY CORPORATE, priority 2017, published 2020)

How the values were obtained:
Type in all cases: in vivo, human
[1] = Comprehensive metabolic panel (blood chemistry, renal function, liver enzymes)
Procedure: (§1) Sixty subjects were consented for this study. This study was conducted in the Integrative Physiology of Aging Laboratory and the Clinical and Translational Research Center (CTRC) at the University of Colorado Boulder. All blood assays were performed at either Boulder Community Hospital or the University of Colorado Denver Anschutz Medical Campus CTRC Core Laboratory. All testing sessions were performed after an overnight fast and 24-hour abstention from exercise and alcohol consumption. All subjects refrained from all prescription medications for 24 hours and over the counter medications for 48 hours prior to all testing visits.
Clinical laboratory values were obtained from blood samples collected at the end of each intervention phase in 21 subjects. Complete blood work was not obtained in three subjects due to a failed catheterization during at least one of the testing phases.

[2] = tested on: healthy middle-aged and older adults; test: Carotid-femoral pulse wave velocity (large elastic artery stiffness)
Procedure: Carotid-femoral PWV, the gold-standard assessment of elastic artery stiffness in humans, was measured using transcutaneous tonometry. Pressure waveforms were recorded simultaneously from the carotid and femoral arteries using two identical non-invasive pressure tonometers (SPT-301, Millar Instruments, Houston, Tex., USA). The transit distance was calculated as the distance between the carotid and femoral recording sites, after subtracting the distance between the carotid recording site and the sternal notch. PWV was calculated as the transit distance divided by the time delay between the foot of each pressure wave.

[3] = tested on: healthy middle-aged and older adults; test: Treatment-emergent adverse events and tolerability, randomized double blinded placebo controlled crossover study
Procedure: The inventors hypothesized that oral supplementation with the nicotinamide adenine dinucleotide (NAD+) increasing compound, nicotinamide riboside (NR) would reduce blood pressure (BP) and aortic pulse wave velocity (aPWV, a measure of large elastic artery stiffness). This hypothesis was tested in healthy middle-aged and older human adults (65±2 yrs, n=24) in a randomized, placebo-controlled crossover study.
as §1
A randomized, double blinded, placebo controlled crossover design was implemented for this study. Healthy middle-aged and older (55-79 years) adult men and postmenopausal women were recruited from the Boulder/Denver metro area. Subjects were nonsmokers and free of clinical diseases as assessed by a medical history, physical examination, blood chemistry and resting and exercise ECG. […] Four subjects dropped out of the study prior to randomization due to time commitment and one subject was unresponsive to scheduling requests resulting in a total of 30 remaining subjects for randomization. Of these, fifteen subjects were randomized to Group A, which received placebo pills during the first 6 weeks of the study before crossing over to receive NR pills for 6 weeks. The remaining fifteen subjects were randomized to Group B, which received NR pills first followed by placebo. One subject was excluded from Group A due to a change in medication status that no longer met inclusion criteria and two subjects in Group A dropped out of the study due to a complaint of side effects. Two subjects were excluded from Group B due to a change in health or medication status that no longer met inclusion criteria and one subject dropped out of Group B due to a broken ankle, resulting in a total of 24 subjects who completed the trial (FIG. 1). These subjects were well matched by age, sex and baseline characteristics between groups and all baseline values were within normal clinical ranges, as shown in Table 1:
14 treatment-emergent adverse events (AEs) were reported by 7 of the 30 participants enrolled in the study.

endothelin-1 (ET-1) = test: Circulating endothelin-1 concentration; conditions: compared with placebo
From the text: To gain potential insight into the underlying mechanisms by which nicotinamide riboside lowers blood pressure, we assessed plasma concentrations of endothelin-1 (ET-1), a potent vasoconstrictor that is released by the vascular endothelium to regulate vascular smooth muscle tone. […] Thus, nicotinamide riboside may lower blood pressure and arterial stiffness by suppressing ET-1-mediated vasoconstriction.

PBMCs = test: NAD+ and related metabolites in PBMCs
From the text: Oral NR supplementation effectively elevated levels of NAD^+ in PBMCs by about 60% compared with placebo (mean change=6.2 pMol/mg protein) (Table 6). […] Of note, NR also elevated levels of nicotinic acid adenine dinucleotide (NAAD) nearly 5-fold above the placebo condition. […] Though not significant, we also observed an ˜1.5-fold increase in nicotinamide mononucleotide (NMN; mean change=0.72 pMol/mg protein), which may indicate the possible conversion of NR to NMN by nicotinamide riboside kinase (NRK) enzymes or further metabolism of NaM into NMN by nicotinamide phosphoribosyltransferase (NAMPT). […] Collectively, these findings indicate that chronic NR supplementation effectively stimulates NAD^+ metabolism in healthy middle-aged and older men and women.

[4] = NR condition, end of 6-week phase, mean ± SEM, 21 subjects
[5] = PBMCs, NR condition, mean ± SD, N = 21
[6] = PBMCs, NR condition, mean ± SD, N = 21, *p < 0.05
[7] = PBMCs, did not reach statistical significance

## NC(=O)c1ccc[n+]([C@@H]2O[C@H](CO)[C@@H](O)[C@H]2O)c1 [NR, nicotinamide riboside]
[1]; [4]
  ALT (SGPT): 30.8 ± 2.4 IU/L
  AST (SGOT): 32.1 ± 1.5 IU/L
  BUN: 17 ± 1 mg/dL
  CO2: 26 ± 1 mEq/L
  albumin: 3.6 ± 0.1 g/dL
  alk phosphatase: 63.4 ± 2.9 IU/L
  calcium: 9.2 ± 0.1 mg/dL
  chloride: 104 ± 1 mEq/L
  creatinine: 0.9 ± 0.03 mg/dL
  eGFR: 74 ± 3 ml/min/1.73 m^2
  glucose: 87 ± 1 mg/dL
  potassium: 4.2 ± 0.1 mEq/L
  sodium: 139 ± 1 mEq/L
  total bilirubin: 0.8 ± 0.1 mg/dL
  total protein: 6.3 ± 0.1 g/dL
[1]; NR vs placebo
  Difference between treatment conditions for blood chemistry (including markers of renal function and liver enzymes): No meaningful differences
[2]; all subjects, regardless of baseline blood pressure status
  PWV lowering by baseline blood pressure status: lowered PWV by a similar degree in all subjects
[2]; following NR supplementation compared with placebo
  Large elastic artery stiffness, aortic pulse wave velocity (PWV): significantly reduced
[3]; NR condition, 6 weeks oral
  Drowsiness, # events: 0 (0)
  Drowsiness, # events/patient: 0 (0)
  Fainting, # events: 0 (0)
  Fainting, # events/patient: 0 (0)
  Flushing/Hot flashes, # events: 1 (1)
  Flushing/Hot flashes, # events/patient: 1 (1)
  Headache, # events: 0 (0)
  Headache, # events/patient: 0 (0)
  Increased Bruising, # events: 1 (1)
  Increased Bruising, # events/patient: 1 (1)
  Leg cramps, # events: 1 (1)
  Leg cramps, # events/patient: 1 (1)
  Nausea, # events: 1 (1)
  Nausea, # events/patient: 1 (1)
  Skin Rash, # events: 1 (1)
  Skin Rash, # events/patient: 1 (1)
[3]; all AEs
  Severity of adverse events: mild in severity
[3]; at the dose tested
  Tolerability: well tolerated
[3]; during the study
  Severe adverse events: No severe adverse events occurred
[3]; flushing reported in both placebo and NR conditions
  Association of flushing with supplementation: unlikely associated with NR supplementation
endothelin-1 (ET-1)
  Serum ET-1 concentrations: lowers serum ET-1 concentrations
PBMCs; PBMCs
  Elevation of NAAD above the placebo condition: ~5 fold
PBMCs; PBMCs, NR condition, N = 21
  NR: <LOQ
PBMCs; [5]
  2-3 cAMP: 0.0 ± 0.0 pMol/mg protein
  3-5 cAMP: 0.0 ± 0.0 pMol/mg protein
  ADP: 1133.8 ± 1880.4 pMol/mg protein
  AMP: 770.8 ± 1884.3 pMol/mg protein
  CDP: 67.7 ± 113.1 pMol/mg protein
  CMP: 137.2 ± 366.0 pMol/mg protein
  CTP: 41.0 ± 68.4 pMol/mg protein
  Cytidine: 4.7 ± 6.6 pMol/mg protein
  FAD: 10.2 ± 5.9 pMol/mg protein
  GDP: 198.4 ± 329.0 pMol/mg protein
  GMP: 1010.1 ± 2114.8 pMol/mg protein
  GTP: 327.1 ± 119.1 pMol/mg protein
  Guanosine: 0.5 ± 1.5 pMol/mg protein
  NADP: 8.9 ± 8.7 pMol/mg protein
  NMN: 1.2 ± 3.3 pMol/mg protein
  NaM: 383.8 ± 282.7 pMol/mg protein
  UDP: 270.0 ± 420.7 pMol/mg protein
  UMP: 1113.7 ± 2374.2 pMol/mg protein
  UTP: 340.3 ± 150.1 pMol/mg protein
  Uridine: 278.3 ± 718.4 pMol/mg protein
  cCMP: 1.8 ± 8.4 pMol/mg protein
  cGMP: 0.0 ± 0.0 pMol/mg protein
PBMCs; [6]
  ATP: 2435.7 ± 1230.3* pMol/mg protein
  Adenosine: 14.4 ± 9.7* pMol/mg protein
  NAAD: 1.4 ± 2.2* pMol/mg protein
  NAD+: 16.2 ± 14.1* pMol/mg protein
PBMCs; PBMCs, NR vs placebo
  ATP mean change: 699 pMol/mg protein
  Mean concentration of adenosine: increases in the mean concentration
  Mean concentration of nicotinamide (NaM): elevated the mean concentration of nicotinamide (NaM), but this was not statistically significant
  Mean level of NADP+: increased, but did not reach statistical significance
  NAD+ mean change: 6.2 pMol/mg protein
  NMN mean change: 0.72 pMol/mg protein
PBMCs; [7]
  Levels of adenosine diphosphate (ADP): tended to raise
  Levels of adenosine monophosphate (AMP): tended to raise
PBMCs; PBMCs, not significant
  Increase in NMN: ~1.5 fold
PBMCs; oral NR supplementation
  Elevation of NAD+ levels in PBMCs compared with placebo: about 60%
